Assays:
Type in all cases: biochemical
[1] = biological target: T1, hIAPP (human islet amyloid polypeptide) (Homo sapiens, UniProt P10997); assay: thioflavin-T fluorescence, aggregation inhibition; details: read-out: IC50 (Aβ/hIAPP, μM) ^a
T1 construct: gene IAPP; mature peptide of 37 residues (34-70 of the precursor, recalled), bought from KareBay Biochem; aggregating peptide, monomer to fibril
T1 sequence (P10997 34-70): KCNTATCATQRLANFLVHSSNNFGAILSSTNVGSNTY
Source text: thioflavin-T fluorescence, aggregation inhibition on hIAPP (human islet amyloid polypeptide)

[2] = biological target: T1, hIAPP (human islet amyloid polypeptide); assay: thioflavin-T fluorescence, disaggregation of preformed aggregates; details: read-out: EC50 (Aβ/hIAPP, μM) ^a
Source text: thioflavin-T fluorescence, disaggregation of preformed aggregates on hIAPP (human islet amyloid polypeptide)

Aβ42 (amyloid-β; Aβ) [3] = biological target: T2, Aβ42 (amyloid-β; Aβ) (Homo sapiens, UniProt P05067); assay: as above; details: read-out: EC50 (Aβ/hIAPP, μM) ^a
T2 construct: gene APP; Abeta42 peptide of 42 residues (672-713 of APP, recalled); cut from amyloid precursor protein; aggregating peptide, monomer to fibril
Source text: thioflavin-T fluorescence, disaggregation of preformed aggregates on Aβ42 (amyloid-β; Aβ)

Aβ42 (amyloid-β; Aβ) [4] = biological target: T2, Aβ42 (amyloid-β; Aβ); assay: thioflavin-T fluorescence, aggregation inhibition; details: read-out: IC50 (Aβ/hIAPP, μM) ^a
Source text: thioflavin-T fluorescence, aggregation inhibition on Aβ42 (amyloid-β; Aβ)

T2 sequence (P05067 672-713): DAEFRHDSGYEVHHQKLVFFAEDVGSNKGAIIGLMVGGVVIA

| Compound | IC50 [1] [µM] | EC50 [2] [µM] | EC50 (Aβ42 (amyloid-β; Aβ) [3]) [µM] | IC50 (Aβ42 (amyloid-β; Aβ) [4]) [µM] |
| --- | --- | --- | --- | --- |
| O=C(O[C@@H]1Cc2c(O)cc(O)cc2O[C@@H]1c1cc(O)c(O)c(O)c1)c1cc(O)c(O)c(O)c1 [EGCG, reference compound] | 1.1 | 3.7 | 5 | 3.8 |
| Oc1cc(O)c2c(c1)O[C@@]1(c3ccc(O)c(O)c3)Oc3cc(O)c4c(c3[C@@H]2[C@H]1O)O[C@H](c1ccc(O)c(O)c1)[C@H](O)C4 [compound 1, procyanidin A2] | 8.4 | 5.4 | 3.3 | 4.8 |
| Oc1cc(O)c2c(c1)O[C@@]1(c3ccc(O)c(O)c3)Oc3cc4c(c(O)c3[C@@H]2[C@H]1O)C[C@@H](O)[C@@H](c1ccc(O)c(O)c1)O4 [compound 3, proanthocyanidin A6] | 16.4 | 4.9 | 23 | 4.2 |
| Oc1cc(O)c2c(c1)O[C@@]1(c3ccc(O)c(O)c3)Oc3cc4c(c(O)c3[C@@H]2[C@H]1O)C[C@H](O)[C@@H](c1ccc(O)c(O)c1)O4 [compound 4, 4] | 16.8 | – | – | 5.7 |
| Oc1cc(O)c2c(c1)O[C@@]1(c3ccc(O)c(O)c3)Oc3c4c(cc(O)c3[C@@H]2[C@H]1O)O[C@H](c1ccc(O)c(O)c1)[C@H](O)C4 [compound 5, proanthocyanidin A7] | 13.4 | 15.8 | 8.9 | 2.4 |
| Oc1cc(O)c2c(c1)O[C@@]1(c3ccc(O)c(O)c3)Oc3c4c(cc(O)c3[C@@H]2[C@H]1O)O[C@H](c1ccc(O)c(O)c1)[C@@H](O)C4 [compound 6, 6] | 11.6 | – | – | 6.8 |
| COc1cc(OC)c2c(c1)O[C@@]1(c3ccc(OC)c(OC)c3)Oc3cc(OC)c4c(c3[C@@H]2[C@H]1O)O[C@H](c1ccc(OC)c(OC)c1)[C@H](O)C4 [compound 7, 7] | > 100 | > 100 | > 100 | > 100 |
| Oc1cc(O)c2c(c1)O[C@H](c1ccc(O)c(O)c1)[C@H](O)C2 [compound 8, (−)-epicatechin] | 38.9 | 12.2 | 12.9 | 41.7 |
| Oc1cc(O)c2c(c1)O[C@H](c1ccc(O)c(O)c1)[C@@H](O)C2 [compound 9, (+)-catechin] | 40.9 | – | – | 56.8 |

— publication PMC8623168, “Evaluation of Amyloid Polypeptide Aggregation Inhibition and Disaggregation Activity of A-Type Procyanidins” (Pharmaceuticals, 2021)
